Results reported in patent US9133103B2, “N-substituted benzenepropanamide and benzenepropenamide for use in the prevention or the treatment of affective disorders” (Novaremed, Ltd., priority 2011, dated 2015).

Experiments:
Format in all cases: in vivo
Balb/c mice [1] = test: Open field test (exploratory locomotor activity); details: 0.1 or 5 mg/kg oral, subchronic; for time spent in zones 2 and 3: in comparison to control mice, FIG. 1F; for locomotor activity (distance moved, velocity, strong mobility and immobility): recorded over 20 minutes, in comparison to the control mice, FIG. 1A-1D
Protocol: This method is one of the most popular in evaluation of animals' behaviour. It tests both motility parameters and anxiety (Prut et al). An individual mouse is placed in a novel plexiglass arena of 50×50 cm the floor of which is divided into 3 digital zones. The outer peripheral zone 1, the medial zone 2 and the most central zone 3. The animal behaviour in the open field is recorded by videotaping for 20 min and analyzed subsequently digitally using Noldus software for animal behaviour. The measurements include general motility: distance moved, velocity and strong mobility, as well as anxiety parameters including frequency of visits to the central area, time spent in the inner field, and number of rearing events in the centre. The more the animal stays and performs in the centre, it is less anxious.
40, 9 week old naïve male Balb/c mice were divided in 5 groups (8 mice in each group) and treated daily (0 min, p.o.) for two weeks, as follows: • 1. Control—0.5% DMSO 0.3 ml/mouse, po (3 ml/10 mice) (15 μl DMSO+2994 μl DDW), n=8. • 2. Diclofenac 10 mg/Kg=0.3 mg/0.3 ml/mouse, i.p. (3 ml/10 mice), n=8 • 3. 135S 0.5 mg/Kg=0.015 mg/0.3 ml/mouse, po (3 ml/10 mice) (135S 0.15 mg (Stock 50 mg/1 ml DMSO) 3 μl+2997 μl DDW), n=8 • 4. 135S 2.5 mg/kg=0.075 mg/0.3 ml/mouse, po (3 ml/10 mice) ([…] 0.75 mg (Stock 50 mg/1 ml DMSO) 15 μl+2985 μl DDW), n=8 • 5. 135S 0.1 mg/Kg=0.003 mg/0.3 ml/mouse, po (3 ml/10 mice) (135S […] (Stock 50 mg/1 ml DMSO) 0.6 μl+2999.4 μl DDW), n=8
Fifteen days after treatment, the five groups of mice listed above were subjected to the open field test for […]. The activity of the mice was assessed by an EthoVision video track system (Noldus Ltd.) A centre zone (“zone 3”; approximately 16% of the total area), a border area (“zone 1”; an 8 cm wide border around the edge of the arena) and an intermediate zone (“zone 2”; the remaining area) were defined. Quantitative parameters, such as the distance travelled and average speed, were recorded for the centre zone and the entire arena.
An Open Field test measures activity in a novel environment and can be used to assess a combination of locomotor activity, exploratory drive, neophobia, agoraphobia and other aspects of anxiety or fear in mice, as well as motor function. Treatment using a 0.1 mg/kg or 5 mg/kg dose of 135S or 175S compound was compared to the effect of treatment with a control substance (DMSO) or Diclofenac. The mice were placed in the centre of the arena and their activity and behaviour was recorded over a period of 20 minutes in respect of the distance moved (cm), velocity (cm/s), strong mobility and immobility. The ratio of total duration between the inner zones 2 and 3 in comparison to the outer zone 1 was recorded. The total duration in the inner zones 2 and 3 was also determined.

Balb/c mice [2] = test: Forced swim test
Source text: This is one of the most widely used tools for screening antidepressant activity preclinically in an acute test and was first described by Porsolt et al (1977). The test is based on the observation that rats and mice develop an immobile posture when placed in an inescapable cylinder of water. This behavior is considered to be a behavioural despair as opposed to an active form of coping with stressful conditions. An antidepressant will reduce immobility and increase motivated behaviour of the rodent to escape from the despaired conditions. This is evidenced by increase in time of swimming, distance moved, velocity and attempts to climb the walls (strong mobility). FST is considered a good screen tool with good reliability and predictive validity.
The test in male mice (Balb/c Harlan IL) was conducted after 4 days of drug administration (90 min post last drug administration). Round glass cylinders 18 cm diameter and 20 cm depth were used. Water temperature was 24-28° C. Motivated behaviour was defined by immobility, swimming and strong mobility. Immobility in the animals was defined by activity lower than 10% movement of the centre of gravity of the animal. Swimming was defined by the distance and the velocity of the animal, and climbing was related to strong mobility (movement of centre of gravity more than 30%). Animals were dropped to the cylinder for 6 min and scoring was performed in the last 4 min after 2 min of adaptation. All results were analyzed by the Noldus (Holland) system including a camera and software for animal behaviour analyses.
Mice were treated with compound 135S at three different concentrations (0.1 mg/kg, 0.5 mg/kg and 2.5 mg/kg), or with the anti-depressant Fluoxetine (10 mg/kg) administered orally in a daily dose for 14 days. The forced swim test was performed on […].
In a first trial, the mice were placed in a tank of water, from which they could not escape. The mobility and immobility of the mice was monitored. In a second trial, the same mice were placed back into the tank. The mobility and immobility of the mice was again monitored.

Balb/c mice [3] = test: Elevated plus maze; details: 0.1, 0.5, 2.5 mg/kg p.o., test on day 8, 15 minutes, in comparison to control mice
Protocol: This model uses the natural fear of rodents to avoid open and elevated places. The apparatus consists of a plus-maze with two enclosed and two opposite open arms, elevated above the floor. […] This is one of the most widely used models to study effects of anxiety-like behaviour. The maze consisted of two opposing open arms (40×10 cm) and two opposing closed arms (40×10 cm, with 40 cm walls) on a platform 50 cm above the ground.
The groups of mice were treated as in Example 2 and an elevated plus maze test was carried out on day 8. This test was used as a further test of the anxiolytic effect of the drugs of the invention.
The mice were placed in the centre of the maze facing an open arm and were allowed to freely explore the maze for 15 minutes. During this time, their behaviour was observed.

Balb/c mice [4] = test: Marble burying test; details: 0.1, 0.5 and 2.5 mg/kg p.o., test on day 15, 20 glass marbles, 20 minutes; against control mice; FIG. 4
Protocol: The marble burying test is a useful model of neophobia, anxiety and obsessive-compulsive behaviour. It has also been proposed that the test may have predictive validity for the screening of novel antidepressants, anxiolytics and antipsychotics. Mice can be expected to bury roughly 75% of the marbles in a 30 min period, although it varies with strain and gender. In this study, male Balb/c mice were used.
The groups of mice were treated as in Example 2 and a marble burying test was carried out on day 15. The mice were placed individually into a cage containing 20 glass marbles and exposed for 20 minutes. The number of marbles buried by the mice was monitored. […] This test provides further evidence of the anxiolytic properties of this compound, in particular with respect to treatment of obsessive compulsive disorder (OCD).

[5] = 0.1, 0.5 and 2.5 mg/kg oral, in comparison to control mice, FIG. 2A-2C

Row | Compound | time spent in zones 2 and 3 (Balb/c mice [1]) | locomotor activity (distance moved, velocity, strong mobility and immobility) (Balb/c mice [1]) | immobility (Balb/c mice [2]; [5]) | mobility (Balb/c mice [2]; [5]) | anti-depressant effect compared with Fluoxetine (Balb/c mice [2]; 135S 0.1, 0.5 and 2.5 mg/kg against Fluoxetine 10 mg/kg, oral) | exploration of the maze (Balb/c mice [3]; FIG. 3A-3D) | time spent within the open arms (Balb/c mice [3]; FIG. 3B) | number of marbles buried (Balb/c mice [4])
1 | CC(O)COCC(Cc1ccc(O)cc1)NC(=O)CCc1ccccc1 (stereo not shown) [Compound 135S] | significant increase | did not show a significant effect | decrease | increase | greater than that resulting from treatment of mice with the common anti-depressant drug Fluoxetine | increased exploration of the maze | increased time spent within the open arms | significantly less marbles than control mice
2 | O=C(CCc1ccccc1)NC(COCCO)Cc1ccc(O)cc1 (stereo not shown) [Compound 175S] | significant increase | did not show a significant effect |  |  |  |  |  | 
